Data reported in patent publication US9481899B2, “Methods and compositions for producing hydrocarbons” (priority 2008, dated 2016).

Target: T1, Npun02004178 protein (Nostoc punctiforme, UniProt B2J1M1)
T1 construct: made in house; host or cells: E. coli BL21 (DE3)
T1 sequence (B2J1M1 1-232): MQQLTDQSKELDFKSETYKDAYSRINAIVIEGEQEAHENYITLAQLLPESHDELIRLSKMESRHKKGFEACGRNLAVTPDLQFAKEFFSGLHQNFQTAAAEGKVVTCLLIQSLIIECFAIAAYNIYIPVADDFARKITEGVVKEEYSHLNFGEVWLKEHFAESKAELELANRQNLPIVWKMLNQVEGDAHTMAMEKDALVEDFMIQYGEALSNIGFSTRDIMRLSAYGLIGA
Test: In-vitro fatty aldehyde decarbonylase assay
Format: biochemical, Nostoc punctiforme PCC73102
Method: The genomic DNA encoding N. punctiforme PCC73102 Npun02004178 (SEQ ID NO:5) was cloned into the NdeI and XhoI sites of vector pET-15b under the control of the T7 promoter. The resulting Npun02004178 protein contained an N-terminal His-tag. An E. coli BL21 strain (DE3) (Invitrogen) was transformed with the plasmid by routine chemical transformation techniques. Protein expression was carried out by first inoculating a colony of the E. coli strain in 5 mL of LB media supplemented with 100 mg/L of carbenicillin and shaken overnight at 37° C. to produce a starter culture. This starter cultures was used to inoculate 0.5 L of LB media supplemented with 100 mg/L of carbenicillin. […] Protein concentration was determined using the Bradford assay (Biorad). […]
To test Npun02004178 protein for decarbonylation activity, the following enzyme assays were set-up. […] Samples were analyzed by GC/MS using the following parameters: run time: 13.13 min; column: HP-5-MS Part No. 19091S-433E (length of 30 meters; I.D.: 0.25 mm narrowbore; film: 0.25 ìM); inject: 1 ìl Agilent 6850 inlet; inlet: 300 C splitless; carrier gas: helium; flow: 1.3 mL/min; oven temp: 75° C. hold 5 min, 320 at 40° C./min, 320 hold 2 min; det: Agilent 5975B VL MSD; det. temp: 330° C.; scan: 50-550 M/Z. Heptadecane from Sigma was used as an authentic reference for determining compound retention time and fragmentation pattern. […]

CCCCCCCCCCCCCCCCCC=O [octadecanal]
in-vitro conversion of octadecanal to heptadecane (30 μM Npun02004178, 200 μM octadecanal, spinach ferredoxin, spinach ferredoxin reductase, 1 mM NADPH, 37° C., 2 h): conversion of octadecanal to heptadecane was observed
in-vitro conversion of octadecanal to heptadecane (NADPH, cyanobacterial ferredoxin oxidoreductase and any of the three cyanobacterial ferredoxins): conversion of octadecanal to heptadecane was observed
